Laboratory results reported in patent publication US11247982B2, “NMDA receptor modulators, compositions comprising same and use of these compounds in the treatment of diseases involving the central nervous system” (ADPUERIVITAM, priority 2017, dated 2022).

System: NMDA receptors
Assay: Whole-cell patch-clamp of NMDA currents in cultured rat embryonic hippocampal neurons
Type: cell-based
Settings: for A. NMDA current: Summary: 10 μM test compound; for C. Channel closing kinetics: T run-down (ms) / C. Channel closing kinetics: Tau (s) / D. Desensitization: Slope (pA/s) / C. Channel closing kinetics: Max slope (pA/s) / B. Channel opening kinetics: Min slope (pA/s) / C. Channel closing kinetics: Run down slope (pA/s) / B. Channel opening kinetics: Run-up slope (pA/s) / B. Channel opening kinetics: T run-up (ms) / B. Channel opening kinetics: Time to peak (ms): 10 μM test compound vs NMDA alone; for C. Channel closing kinetics: T run-down (ms): closing time between 90% and 10% of max current; for C. Channel closing kinetics: T run-down (ms) / C. Channel closing kinetics: Tau (s) / D. Desensitization: Slope (pA/s) / C. Channel closing kinetics: Max slope (pA/s) / B. Channel opening kinetics: Min slope (pA/s) / C. Channel closing kinetics: Run down slope (pA/s) / B. Channel opening kinetics: Run-up slope (pA/s) / B. Channel opening kinetics: T run-up (ms) / B. Channel opening kinetics: Time to peak (ms) / A. NMDA current: Width 50 (ms) / A. NMDA current: Peak area (pA · s): (n) = cells; for C. Channel closing kinetics: Tau (s): closing time of 50% of the channels (half-life); for D. Desensitization: Slope (pA/s): desensitization speed during the application of NMDA; for C. Channel closing kinetics: Max slope (pA/s): greatest closing speed; for B. Channel opening kinetics: Min slope (pA/s): greatest opening speed; for C. Channel closing kinetics: Run down slope (pA/s): mean closing speed during T run-down; for B. Channel opening kinetics: Run-up slope (pA/s): mean opening speed during T run-up; for B. Channel opening kinetics: T run-up (ms): opening time between 10% and 90% of max current; for B. Channel opening kinetics: Time to peak (ms): time to reach the maximum current; for A. NMDA current: Width 50 (ms) / A. NMDA current: Peak area (pA · s) / A. NMDA current: Height (pA): 10 μM test compound with 100 μM NMDA + 5 μM L-glycine vs NMDA alone; for A. NMDA current: Width 50 (ms): duration of current above 50% of Height; for A. NMDA current: Peak area (pA · s): total current integrated over time; for A. NMDA current: Height (pA): −60 mV, maximum current, (n) = number of cells; for A. NMDA current: Washable / B. Channel opening kinetics: Washable / C. Channel closing kinetics: Washable / D. Desensitization: Washable: persistence of effect, NMDA wash vs NMDA + test compound
Procedure: Female Wistar rats in gestation with 17-day-old embryos (E17) were obtained from Janvier Labs. On the day of receipt of the animals, the rat is sacrificed and the embryos are dissected under sterile conditions to remove their brain, which is then micro-dissected in GBSS (Gey's balanced salt solution) medium to obtain the hippocampus from the two hemispheres, while discarding the meninges. The tissues harvested from at least five embryos are placed in 2 ml of DMEM medium (registered trademark) (Dulbecco's modified Eagle's medium—from Life Technologies) with 2% of fetal calf serum, 2 mM of glutamine, 0.1 mg/mL of penicillin-streptomycin antibiotic mixture (Life Technologies) and subjected to mechanical dissociation of the cells by passing through round-ended glass pipettes with an inside diameter decreasing from 0.5 to 0.2 mm. The cells are counted and 100 μl of suspension containing 25×10^3 cells are placed on a glass slide coated with polylysine (poly-D-lysine hydrobromide from 75 to 150 kDa, from Sigma) of Ø 12 mm, in 12-well culture plates and incubated for 2 hours at 37° C. under an atmosphere containing 5% of CO2 to allow cell adhesion. A volume of 2 mL of culture medium is added gently: Neurobasal (registered trademark) with 1/50 (v:v) serum-free supplement B-27® (Life Technologies), 2 mM of glutamine, 0.1 mg/ml of penicillin-streptomycin antibiotic mixture (from Life Technologies), and incubation is again performed under the same conditions. Half of the medium is replaced twice a week for maintenance. The neuronal cells will be able to differentiate over a period of 12 to 30 days. The cultures are monitored by phase-contrast microscopy: the extension of the neurites and of the synaptic connections is observed for the neurons, which represent the majority of the cells, while a few astrocytes are also present.
The electrophysiology post consists of an Olympus IMT-2 model inverted phase-contrast microscope placed on a TMC antivibration table in a Faraday cage. The installation also comprises an SF-77B model Warner multichannel perfusion system, a Burleigh PCS-5000 model 3D-micromanipulator system holding the microelectrode probe, a Warner PC-505 model patch-clamp amplifier and a PowerLab 8/35 model 8-channel analog-digital interface from ADInstruments. The glass microelectrode is manufactured with thin-walled borosilicate capillary tubes (1.5 OD×1.17 ID×100 L mm, from Harvard Apparatus) and prepared with the Narishige PC10 model vertical electrode puller to obtain an electrical resistance of about 5 MOhm. The electrode of the pipette is filled with the intracellular medium composed of (in mM): 100 CsF, 40 CsCl, 1.2 CaCl2, 20 HEPES, 10 EGTA, pH=7.4 (adjusted with CsOH).
The culture on its slide is placed in a 60 mm Petri dish with 2 ml of extracellular medium composed of (in mM): 140 NaCl, 5 KCl, 1.2 CaCl2, 1.5 MgCl2, 12 HEPES, 12 Na-HEPES, 33 glucose, pH=7.4.
The neuron selected is patched in the whole cell configuration. The maintenance potential is set at −60 mV.
The assembled glass microtubes of square cross section of the perfusion system each provide a stable stream of different composition. The “TTX” default medium corresponds to the extracellular medium to which is added 1 μM tetrodotoxin. The “NMDA” application medium is “TTX” supplemented with 100 μM of NMDA (N-methyl-D-aspartate) as agonist, and 5 μM of L-glycine as co-agonist. The “NMDA+ test compound” medium corresponds to the “NMDA” supplemented with 10 μM of the test compound. The “NMDA wash” is identical to the “NMDA” medium.
As a general rule, three applications of each test compound are performed on the patched cell, for 2 seconds at intervals of 3 minutes (to allow inversion of desensitization). The sequence of the applications is: 1) “NMDA”, 2) “NMDA+ test compound”, 3) “NMDA wash”. The “TTX” medium is applied by default, before and after each application of test compound. […]

SMILES | A. NMDA current: Summary | C. Channel closing kinetics: T run-down (ms) | C. Channel closing kinetics: Tau (s) | D. Desensitization: Slope (pA/s) | C. Channel closing kinetics: Max slope (pA/s) | B. Channel opening kinetics: Min slope (pA/s) | C. Channel closing kinetics: Run down slope (pA/s) | B. Channel opening kinetics: Run-up slope (pA/s) | B. Channel opening kinetics: T run-up (ms) | B. Channel opening kinetics: Time to peak (ms) | A. NMDA current: Width 50 (ms) | A. NMDA current: Peak area (pA · s) | A. NMDA current: Height (pA) | A. NMDA current: Washable | B. Channel opening kinetics: Washable | C. Channel closing kinetics: Washable | D. Desensitization: Washable | antagonistic effect on the maximum current amplitude (concentration of less than 1 μM)
O=C(C[C@]1(O)C(=O)N(CCc2c[nH]c3ccccc23)c2ccccc21)c1cccc(Cl)c1 [Molecule 1] | Antagonist (4+) | 12 ± 6% (7) | 29 ± 13% (6) | −59 ± 8% (7) | −27 ± 10% (7) | −35 ± 12% (7) | −48 ± 8% (7) | −45 ± 7% (7) | 3 ± 3% (7) | 1 ± 4% (7) | 0 ± 9% (7) | −37 ± 12% (7) | −43 ± 8% (7) | No | No | No | No | –
O=C(C[C@]1(O)C(=O)N(CCc2c[nH]c3ccccc23)c2ccccc21)c1ccccc1Cl [Molecule 2] | Antagonist (6+) | −15 ± 5% (7) | 44 ± 28% (7) | −70 ± 17% (7) | −28 ± 8% (7) | −25 ± 9% (7) | −63 ± 13% (7) | −61 ± 10% (7) | −16 ± 13% (7) | −7 ± 4% (7) | −49 ± 14% (7) | −65 ± 13% (7) | −66 ± 10% (7) | Yes | (Yes/No) | (Yes/No) | (Yes) | –
O=C(C[C@]1(O)C(=O)N(CCc2c[nH]c3ccccc23)c2ccccc21)c1ccccc1F [Molecule 3] | Antagonist (2+) | 2 ± 4% (13) | 17 ± 5 (13) % | −43 ± 8% (13) | −22 ± 4% (13) | −22 ± 4 (13) % | −30 ± 8% (13) | −23 ± 5% (13) | −8 ± 6% (13) | −5 ± 3% (13) | −10 ± 7% (13) | −16 ± 8% (13) | −24 ± 7% (13) | (No/Yes) | (Yes/No) | No | No | –
Cc1ccc2[nH]c(=O)c(C3=NN(C(=O)CCC(=O)O)C(c4ccc(Br)cc4)C3)c(-c3ccccc3)c2c1 (stereo not shown) [DQP1105, reference compound] | – | – | – | – | – | – | – | – | – | – | – | – | – | – | – | – | – | maintained at the same level
